According to patent US20040122001A1, “Pharmaceutical compounds” (priority 2000, published 2004):

Work on `Fc1ccc2c(C3=CCN(CCC4OCCc5cc(Br)ccc54)CC3)c[nH]c2c1` (stereo not shown) yielded a melting point of 184 to 185.6 °C. `CNC(=O)c1ccc2c(c1)CCCN2CCN1CC=C(c2c[nH]c3cc(F)ccc23)CC1` showed a melting point of 121 to 125 °C. With `NC(=O)c1ccc2c(c1)CCCN2CCN1CC=C(c2c[nH]c3cc(F)ccc23)CC1` the melting point was 130 to 133 °C. `O=C(NCCO)c1ccc2c(c1)CCCN2CCN1CC=C(c2c[nH]c3cc(F)ccc23)CC1` gave a melting point of 136 to 140 °C.
